Laboratory results reported in patent US4806556A, “Gut-selective opiates” (Regents of the University of Minnesota, priority 1987, dated 1989).

Columns and labels:
[1] = system: electrically-stimulated guinea pig ileum (GPI) preparations; test: Agonist activity: inhibition of contraction of electrically-stimulated guinea pig ileum (GPI) preparation, compared to morphine; set-up: Emax: dose or concentration left out as unconfirmed; conditions: for Emax: Cavia porcellus, read-out: Agonism: partial agonist, maximal response relative to that of morphine; for Agonist activity on GPI (in words): compared to morphine; for Agonism (Morphine = 1): potency factor for the inhibition of contraction relative to that of morphine: electrically stimulated guinea pig ileum, 3 determinations
[2] = system: electrically-stimulated guinea pig ileum (GPI) preparations; test: Antagonist activity: displacement of the morphine concentration-response curve on guinea pig ileum preparation; conditions: for Antagonism (Morphine IC50 Ratio): factor by which the morphine concentration-response curve is shifted to higher concentration: IC50 of morphine with antagonist / control IC50, 3 determinations

Structure (SMILES) | Emax [1] [%] | Agonist activity on GPI (in words) [1] | Antagonism (Morphine IC50 Ratio): factor by which the morphine concentration-response curve is shifted to higher concentration ([2]; ligand concentration 200 nM) | Agonism (Morphine = 1): potency factor for the inhibition of contraction relative to that of morphine [1] | Antagonism (Morphine IC50 Ratio): factor by which the morphine concentration-response curve is shifted to higher concentration ([2]; ligand concentration = 20 nM) | Morphine antagonist activity on GPI (in words) [2]
O=C(O)CCC(=O)NC1CC[C@@]2(O)[C@H]3Cc4ccc(O)c5c4[C@@]2(CCN3CC2CC2)[C@H]1O5 (stereo partly drawn) [Compound 1] | 30 to 60 | submaximal responses relative to morphine | 11.0 |  |  | 
O=C(O)/C=C/C(=O)NC1CC[C@@]2(O)[C@H]3Cc4ccc(O)c5c4[C@@]2(CCN3CC2CC2)[C@H]1O5 (stereo partly drawn) [Compound 3] |  |  |  | 3 | 3.7 | 
O=C(O)COCC(=O)NC1CC[C@@]2(O)[C@H]3Cc4ccc(O)c5c4[C@@]2(CCN3CC2CC2)[C@H]1O5 (stereo partly drawn) [Compound 4] | 30 to 60 | submaximal responses relative to morphine | 34.8 |  |  | 
N=C(N)NCCCC(N)C(=O)N[C@@H]1CC[C@@]2(O)[C@H]3Cc4ccc(O)c5c4[C@@]2(CCN3CC2CC2)[C@H]1O5 (stereo partly drawn) [Compound 5, Arginyl-β-naltrexamine] | 30 to 60 | submaximal responses relative to morphine | 4.0 |  |  | 
NC(CC(=O)O)C(=O)NC1CCC2(O)C3Cc4ccc(O)c5c4C2(CCN3CC2CC2)C1O5 (stereo not drawn) [Compound 6] |  |  | 1 | 14.2 |  | possible exception to this generality
O=C(O)CN[C@@H]1CC[C@@]2(O)[C@H]3Cc4ccc(O)c5c4[C@@]2(CCN3CC2CC2)[C@H]1O5 [Compound 7, β-Naltrexamineacetic acid] | 30 to 60 | submaximal responses relative to morphine |  |  | 2.4 | 
CN1CC[C@]23c4c5ccc(O)c4O[C@H]2C(NC(=O)CCC(=O)O)CC[C@@]3(O)[C@H]1C5 (stereo partly drawn) [Compound 8] |  |  | 1 | 1.6 |  | 
CN1CC[C@]23c4c5ccc(O)c4O[C@H]2C(NC(=O)/C=C/C(=O)O)CC[C@@]3(O)[C@H]1C5 (stereo partly drawn) [Compound 9] |  |  | 1 | 1.5 |  | 
CN1CC[C@]23c4c5ccc(O)c4O[C@H]2C(NC(=O)/C=C\C(=O)O)CC[C@@]3(O)[C@H]1C5 (stereo partly drawn) [Compound 10] |  |  | 1 | 2.7 |  | 
CN1CC[C@]23c4c5ccc(O)c4O[C@H]2C(NC(=O)COCC(=O)O)CC[C@@]3(O)[C@H]1C5 (stereo partly drawn) [Compound 11] |  |  | 1 | 3.1 |  | 
CN1CC[C@]23c4c5ccc(O)c4O[C@H]2C(NC(=O)C(N)CC(=O)O)CC[C@@]3(O)[C@H]1C5 (stereo partly drawn) [Compound 12] |  |  | 1 | 6.1 |  | 
O=C(O)CNN=C1CC[C@@]2(O)[C@H]3Cc4ccc(O)c5c4[C@@]2(CCN3CC2CC2)[C@H]1O5 [Compound 15, Naltrexazoneacetic acid] | 30 to 60 |  | 100 |  |  | 
N=C(N)NN=C1CC[C@@]2(O)[C@H]3Cc4ccc(O)c5c4[C@@]2(CCN3CC2CC2)[C@H]1O5 [Compound 16, Naltrexazone iminosemicarbazone] |  |  |  | 29 |  | 
